This note sets out measurements from patent US20240261359A1, “PHARMACEUTICAL COMPOSITION FOR USE PREVENTING AND CURING RESPIRATORY DISEASES IN WINTER” (Tianjin University of Traditional Chinese Medicine, priority 2020, published 2024).

Experiment [1] has as its system NF-κB. Type of experiment: cell-based. The conditions noted are these: dexamethasone 10 μM with TNF-α, 6 h; L/S; x ± SD, n = 18; model 4641.34, control 17.46. The method, then:
(§1) The 293T cells in the logarithmic growth phase were taken and inoculated into a 96-well cell culture plate at a density of 2×10^5 cell/mL, and after growth along the walls to 70-80%, a PEI (1 mg/ml) transfecting agent was used to simultaneously transfect them with ARE and NF-κB luciferase reporter plasmids pGL4.37, pGL4.32 (100 ng/well) and a renilla luciferase reported plasmid pGL4.75 (10 ng/well), and they were cultured for 24 h.
(§2) After 24-h culture, the cells transfected with the ARE luciferase reporter plasmid pGL4.37 are added with tBHQ (10 μM) and safety concentrations of the sample solutions of the individual inventive pharmaceutical composition groups, and by setting a control group, and they were cultured 6 h; the cells transfected with NF-kB luciferase reporter plasmid pGL4.32 were respectively added with dexamethasone (10 μM) diluted by a TNF-α complete culture medium, and safety concentrations of the sample solutions of the individual inventive pharmaceutical composition groups, and by setting a control group, and a model group, and they were cultured for 6 h. The supernatant was discarded, and the cells were rinsed with PBS. After splitting, they were detected by using a Dual-Luciferase detection system. Each set of experiments were configured with 6 compound wells, with 3 repetitions. […]

The test system of experiment [2] is ARE. Briefly: ARE luciferase reporter gene activity in transfected 293T cells. The class given is cell-based. The settings on record: tBHQ 10 μM, 6 h; relative luciferase activity L/S; x ± SD, n = 18; control 0.76. The method, then:
as §1, §2
(In general: Reporter assays use an easily measured gene product as a stand-in for the process of interest.)

For experiment [3], the system named is rats suffered from acute pharyngitis caused by Staphylococcus aureus. Briefly: Scoring of pharyngeal lesions, rat acute pharyngitis model. Type of experiment: in vivo, SD rats. Details: key to Pharyngeal inflammatory response grade of most animals: −: pharyngeal tissues were in light red color, and they had moist and glossy surfaces, and no secreted substances, no congestion, no swelling and other pathological phenomena; +: the mucosa in the pharynx had poor gloss, and there were a small amount of secreted substances, and slight congestions and swelling; ++: the mucosa in the pharynx was in a dark red color and poor in the gloss, and secreted substances exist therein, accompanying by moderate congestions and swelling and other phenomena; +++: the mucosa in the pharynx exhibited a dark red color, increased secretion of mucus, and evident congestion and swelling.

Experiment [4] has the same test system. Briefly: Pathological morphology of pharyngeal tissues (HE staining), rat acute pharyngitis model. The conditions noted are these: HE sections, FIG. 2A-2D. The class given is in vivo, SD rats. The method, then:
Material taking: rats were anesthetized and pharyngeal tissues were taken and fixed in 4% paraformaldehyde for more than 24 h. The tissues were taken from the fixing solution and in a fume hood, the tissues at the target region were trimmed with a surgical knife. The trimmed tissues and the corresponding tags were placed in a dehydration box.
Dehydration: the dehydration was conducted by placing the dehydration box in a hanging basket, and in a dehydration machine, the dehydration was conducted with alcohols with gradient concentrations in order. 75% alcohol 1 h-85% alcohol 1 h-90% alcohol 1 h-95% alcohol 1 h-anhydrous ethanol I 30 min-anhydrous ethanol II 30 min-alcohol benzene 5-10 min-xylene I 5-10 min-xylene II 5-10 min-wax I 1 h-wax II 1 h-wax III 1 h.
Embedding: the tissues immersed with wax were embedded in an embedding machine. The molten wax was placed in an embedding frame first, and before it was solidified, the tissues were taken from the dehydration box and placed in the embedding frame according to requirements on embedded faces and corresponding tags were attached. They were cooled on a freezing table at −20° C., and after wax solidification, the wax block was taken from the embedding frame and trimmed.
Slicing: the trimmed wax block was sliced on a paraffin slicing machine, in a thickness of 4 μm. […]

Experiment [5] shares this test system. Briefly: Peripheral white blood cell count and classification, rat acute pharyngitis model. The settings on record: composition 3.5 g/kg, amoxicillin 0.36 g/kg, x ± s, n = 7. The class given is in vivo, SD rats. The text has this:
Before each group of animals were scarified, blood was taken by cutting tails and smeared on plates to conduct routine blood examinations about number of white blood cells, lymphocyte percentages and neutrophils percentages.

For experiment [6] the test system is unchanged. Briefly: Inflammatory factors in rat serum by ELISA, rat acute pharyngitis model. Type of experiment: in vivo, SD rats. The conditions noted are these: composition 3.5 g/kg, amoxicillin 0.36 g/kg, x ± s, n = 7. The method, then: Rates were anesthetized. Blood was taken from abdominal aorta and injected into a procoagulant tube, standing for 45 min at room temperature, and it was centrifuged at 3500 rpm for 10 min. The supernatant was suction taken into a sterile EP tube and stored at −80° C. Before measurements, the samples were re-thawed at room temperature, and the IL-1β, IL-6 and TNF-α levels in serum were measured by enzyme-linked immunosorbent assay (ELISA). The operations were carried out according to the instruction of the kit, and each index was detected by an enzyme-labelled meter at the absorbance 450 nm.
Background: In an ELISA, binding on a coated surface is turned into a signal by an enzyme label.

The test system is the same in experiment [7]. Put plainly: Appearance behavior scoring and thymus weight, rat acute pharyngitis model caused by Staphylococcus aureus. The class given is in vivo, SD rats. The settings on record: ig, composition 3.5 g/kg, amoxicillin 0.36 g/kg, x ± s, n = 7. The method, then: Formulations of medicinal solutions: before the test, distilled water was used to formulate a medicinal solution with a concentration of 0.35 g/ml, which was intragastrically administrated in 1 ml/100 g body weight/time, 2 times/day, and on 7th day after pre-administrations, modelling was started and the intragastric administration was continued for 5 days.
On 1st day, at 1 h after Staphylococcus aureus infection, the positive medicinal group was intragastrically administrated at a dose of 0.36 g/kg (equivalently equal to the clinical dose of a human), 1 time/day for 5 consecutive days.
With scoring standard (from Standards for Preparation of Animal Models Suffered from Acute Pharyngitis, enacted by Traditional Chinese medicine Experimental Pharmacology Professional Committee of Traditional Chinese Medicine Institute, Traditional Chinese Medicine Pharmacology and Clinics 2018; 34 (1)), according to weights, mobility, fur color and gloss of rats, they were classified into 4 grades, as shown in the following Table 4.

The mark [8] stands for this setting: of 7 rats, composition 3.5 g/kg, amoxicillin 0.36 g/kg.

On to `C[C@@H]1C[C@H]2[C@@H]3CCC4=CC(=O)C=C[C@]4(C)[C@@]3(F)[C@@H](O)C[C@]2(C)[C@@]1(O)C(=O)CO` [Dex, Dexamethasone], for which, in experiment [1], the “NF-κB luciferase activity of 293T cells” value amounted to 968.61.

On to `CC(C)(C)c1cc(O)ccc1O` [tBHQ, Tertiary butylhydroquinone], for which, in experiment [2], the “ARE luciferase activity of 293T cells” value worked out at 3.55.

With `CC1(C)S[C@@H]2[C@H](NC(=O)[C@H](N)c3ccc(O)cc3)C(=O)N2[C@H]1C(=O)O` [Amoxicillin], in experiment [3] (setting [8]), the “Pharyngeal lesions: number of animals in grade +” value is given as 6, the “Pharyngeal lesions: number of animals in grade ++” value is listed as 1, the “Pharyngeal lesions: number of animals in grade +++” value came to 0 and the “Pharyngeal lesions: number of animals in grade −” value came out at 0. The “Pharyngeal inflammatory response grade of most animals” value in experiment [3] (summary of Table 6) is listed as “+”. The “Pathological morphology of pharyngeal tissues (inflammatory cell infiltration, mucosa recovery)” value in experiment [4] is “very similar to those in the inventive pharmaceutical composition group”. In experiment [5], the “L (%), percentages of lymphocytes” value stood at 76.37 ± 7.42 %; the “N (%), percentages of neutrophils” value was determined as 19.5 ± 6.77 %; the “WBC (×10^9/L), white cells” value is reported as 8.17 ± 30^ ×10^9/L. Further, in experiment [6], the “IL-1β (pg/mL) in peripheral blood” value turned out to be 254.04 ± 59.15 pg/mL, the “IL-6 (pg/mL) in peripheral blood” value was found to be 28.21 ± 8.67 pg/mL and the “TNF-α (pg/mL) in peripheral blood” value came to 145.14 ± 30.98 pg/mL. Further, the “Thymus gland” value in experiment [7] amounted to 0.26 ± 0.11 g. Moreover, in experiment [7] (index grade 0-3 (Table 4)), the “Fur gloss (appearance behavior score)” value is 1.14 ± 0.38 and the “Mobility (appearance behavior score)” value was determined as 1.43 ± 0.53.
